Measurements from patent publication US12539285B2, “Therapeutic agent for hypertrophic cardiomyopathy” (JUNTENDO EDUCATIONAL FOUNDATION, priority 2021, dated 2026).

Assays:
[1] = test system: myocardial cells derived from iPS cells of hypertrophic cardiomyopathy patient (MYH7 R403Q); experiment: Myocardial relaxation rate (SONY SI8000) in HCM patient iPS-derived myocardial cells; assay type: cell-based; settings: ALA/SFC 10 μM/5 μM, 30 μM/1 μM, 100 μM/50 μM; measured Day 20 and Day 26 vs before administration (Day 15); FIG. 1
Procedure: (§1) Myocardial cells differentiated from iPS cells derived from hypertrophic cardiomyopathy patient were purchased, seeded, and cultured and were then administered with 5-aminolevulinic acid and sodium ferrous citrate (ALA/SFC). As myocardial cells, […] Cardiomyocytes (MYH7 R403Q) (C1081, cat. #556-34781) (FUJIFILM Cellular Dynamics, Inc.) was used. As a control, myocardial cells derived from iPS cells of normal subject (Cell Cardiomyocytes (Control) (C1056, cat. #551-33491) (FUJIFILM Cellular Dynamics, Inc.) was used. As the culture medium for cell seeding, (iCell Plating medium (M1001, cat. #550-33581) (FUJIFILM Cellular Dynamics, Inc.) was used.
(§2) In the cell culture, as the culture medium, iCell Maintenance medium (M1003, cat. #557-3359I) (FUJIFILM Cellular Dynamics, Inc.) was used.
(§3) • Day 1: Cell seeding (myocardial cells derived from iPS cells of hypertrophic cardiomyopathy patient, myocardial cells derived from iPS cells of normal subject). The cells were seeded at 3×10^4 per well in a 96-well plastic plate (nunc); • Day 15: The relaxation rate before administration was measured using SONY SI8000, and ALA/SFC were then administered on the same day at the following doses. The doses were four groups of 0 μM/0 μM, 10 μM/5 μM, 30 μM/1 μM, and 100 μM/50 μM of ALA/SFC for each of the disease myocardial cells and the normal myocardial cells. […]

[2] = test system: zebrafish cardiomyopathy model (myocardial troponin T knockdown (tnnt2a KD)); experiment: Zebrafish cardiomyopathy model (tnnt2a KD), peak filling rate by heart imaging; assay type: in vivo; settings: ALA/SFC 100 μM/50 μM in culture solution, DAY 0-2, imaging DAY 3; FIG. 5
From the text: A synthetic nucleic acid, morpholino antisense oligo (MO), which inhibits translation of zebrafish myocardial troponin T (tnnt2a), was used. The target sequence of tnnt2a-MO used for producing this cardiomyopathy model was 5′-[…]-3′ (SEQ ID NO: 1), and the target sequence of standard control MO (Control-MO) used as a negative control was 5′-[…]-3′ (SEQ ID NO: 2). Both MOs used were produced by Certified GeneTool, Inc. Standard control MO (Lis-MO) having the 3′ terminal labeled with a red fluorescent material, Lissamine, was used as an internal standard substance. An MO powder diluted with nuclease free water to 1 mM was used as a stock solution, and the final concentrations of the tnnt2a-MO and Control-MO were adjusted to 1.2 μM and the final concentration of Lis-MO was adjusted to 50 μM, using nuclease free water as a working solution for microinjection. […]
The acquired moving image was converted into sequence images, and the ventricular outline in each frame was recorded as Region of Interest (ROT). Subsequently, the major and minor axes of an ellipse approximating to the ROI on each sequence image were measured by Fit-to-Ellipse algorithm, the volume of the spheroid of each sequence image was calculated as a ventricular volume, and the peak filling rate (PFR: diastolic function) was measured from the rate of change in the obtained ventricular volume.

[3] = test system: myocardial cells derived from iPS cells of normal subject; experiment: Myocardial relaxation rate (SONY SI8000) in normal myocardial cells; assay type: cell-based; settings: ALA/SFC 10 μM/5 μM, 30 μM/1 μM, 100 μM/50 μM; measured Day 20 and Day 26 vs before administration (Day 15); FIG. 2
Procedure: as §1, §2, §3

[4] = test system: myocardial cells derived from iPS cells of hypertrophic cardiomyopathy (HCM) patient; experiment: Fluorescent calcium imaging, peak width of Ca-imaging waveform; assay type: cell-based; settings: 10 μM and 30 μM 5-aminolevulinic acid added from 7th day after seeding; FIG. 4
From the text: The determinant of the myocardial relaxation rate is the dissociation rate of myosin and actin, and one of factors of determining the dissociation rate is the Ca^2+ uptake function of ATPase present in the longitudinal tubules of sarcoplasmic reticulum. Accordingly, using the above-mentioned myocardial cells derived from iPS cells of hypertrophic cardiomyopathy (HCM) patient, the peak width of a Ca-imaging waveform, which reflects the disappearance rate of Ca^2+ in myocardial cells (i.e., the uptake rate of Ca^2+ into the sarcoplasmic reticulum) by addition of 5-aminolevulinic acid, was measured. […]
As the measurement apparatus for high content analysis, CQ1 Image Cytometer of Yokogawa Electric Corporation was used, and the measurement was performed with excitation light of 488 nm and fluorescence at 500 to 550 nm (spinning-disk confocal unit with microlens array). […]
Over the entire screen of the obtained image data, the fluorescence intensity was digitized over time to obtain fluorescence waveforms. […] The parameters calculated from a waveform were the line width (sec) at each of 10%, 20%, 30%, 50%, 70%, and 90% of the waveform height, the length (sec) of interval between each wave, and the fluorescence intensity (ΔF).

NCC(=O)CCC(=O)O [5-aminolevulinic acid]
relaxation rate of myocardial cells in hypertrophic cardiomyopathy [1]: noticeably increased
left ventricular diastolic function (peak filling rate, PFR) [2]: improved
relaxation rate in normal myocardial cells [3]: did not increase
peak width at 50% of the height of a Ca-imaging waveform (uptake of Ca2+ into sarcoplasmic reticulum) [4]: obviously reduced
